Reference: patent publication US8754073B2, “Substituted piperazino-dihydrothienopyrimidines” (Boehringer Ingelheim International GmbH, priority 2007, dated 2014)
Counter-ions that a name gives are not always drawn.

These compounds were tested against PDE4B (Homo sapiens, UniProt Q07343) (assay: Scintillation Proximity Assay (SPA) of PDE4B enzyme activity ([H3]-cAMP cleavage)). Conditions: test substance 1 μM; one-hour incubation of [H3]-cAMP with PDE4B enzyme at 30° C.
Format: biochemical
Method: The inhibitions (in %) at 1 μM of the individual Example substances are given in the following Table of Examples and were determined as follows:
The Scintillation Proximity Assay (SPA) (GE Healthcare, No. TRKQ7090) was carried out by using the different affinities of cyclic 3′-5′-adenosinemonophosphate (cAMP, low affinity) and linear 5′-adenosinemonophosphate (AMP, high affinity) for yttrium silicate scintillator beads. The cAMP specific phosphodiesterase (PDE) PDE4B cleaves the 3′-phosphoester bond of tritium-labelled [H3]-cAMP to form [H3]-5′-AMP. This [H3]-AMP accumulates on the scintillator beads because of its higher affinity for them and causes scintillation events (flashes of light) which are measured in a Wallac Microbeta Scintillation Counter.
The experiment starts with a one-hour incubation of [H3]-cAMP with the PDE4B enzyme in assay buffer at 30° C., in each case once with the Example substance to be tested (in a concentration of 1 μM) and once without the Example substance to be tested.
After this incubation, the reaction is stopped by the addition of the beads. The beads have an opportunity to settle in the next 45 minutes, then the measurement is carried out in the Scintillation Counter. If the substance is capable of inhibiting the enzymatic activity of the PDE4B, less [H3]-AMP is produced during the incubation phase and fewer scintillation events can be measured.

Chain of PDE4B (Q07343 whole entry, species assumed): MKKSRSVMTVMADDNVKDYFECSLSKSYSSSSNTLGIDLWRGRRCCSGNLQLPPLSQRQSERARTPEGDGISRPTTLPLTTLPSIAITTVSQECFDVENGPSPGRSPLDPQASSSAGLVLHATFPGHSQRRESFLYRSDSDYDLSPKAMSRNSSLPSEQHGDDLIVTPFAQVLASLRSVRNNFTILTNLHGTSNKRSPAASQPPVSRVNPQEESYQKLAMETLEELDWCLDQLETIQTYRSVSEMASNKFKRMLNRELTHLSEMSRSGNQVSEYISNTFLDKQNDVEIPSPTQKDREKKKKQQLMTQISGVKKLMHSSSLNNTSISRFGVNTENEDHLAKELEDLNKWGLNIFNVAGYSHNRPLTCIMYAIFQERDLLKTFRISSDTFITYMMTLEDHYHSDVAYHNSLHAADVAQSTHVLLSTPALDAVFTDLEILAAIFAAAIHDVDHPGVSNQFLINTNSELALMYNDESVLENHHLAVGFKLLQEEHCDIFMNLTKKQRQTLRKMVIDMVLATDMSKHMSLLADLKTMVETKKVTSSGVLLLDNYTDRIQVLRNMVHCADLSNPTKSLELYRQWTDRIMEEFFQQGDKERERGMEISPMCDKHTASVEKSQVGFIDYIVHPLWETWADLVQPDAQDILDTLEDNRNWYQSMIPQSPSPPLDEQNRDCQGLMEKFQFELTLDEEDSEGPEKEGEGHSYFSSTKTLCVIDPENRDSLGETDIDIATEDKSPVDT

Row | inhibition at 1 µM | SMILES
1 | 96% | CN1C[C@@H](Nc2nc(N3CCC(c4ccncc4)CC3)nc3c2[S+]([O-])CC3)CCC1=O (stereo partly shown) [Example 48]
2 | 92% | [O-][S+]1CCc2nc(N3CCC(c4ccncc4)CC3)nc(NC3CCOCC3)c21 (stereo not shown) [Example 63]
3 | 93% | [O-][S+]1CCc2nc(N3CCC(c4cccc(Cl)c4)CC3)nc(NC3CCOCC3)c21 (stereo not shown) [Example 69]
4 | 96% | [O-][S+]1CCc2nc(N3CCC(c4c[nH]c5ccccc45)CC3)nc(Nc3cccc(F)c3)c21 (stereo not shown) [Example 71]
5 | 95% | [O-][S+]1CCc2nc(N3CCC(c4c[nH]cn4)CC3)nc(Nc3cccc(F)c3)c21 (stereo not shown) [Example 72]
6 | 94% | CN1C(=O)Nc2ccccc2C12CCN(c1nc3c(c(Nc4cccc(F)c4)n1)[S+]([O-])CC3)CC2 (stereo not shown) [Example 73, 1-(4-(3-fluorophenylamino)-5-oxo-6,7-dihydro-5H-5λ^4-thieno[3,2-d]pyrimidin-2-yl)-3′-methyl-1′H-spiro[piperidin-4,4′-quinazolin]-2′(3′H)-one]
7 | 95% | CS(=O)(=O)N1CC2(CCN(c3nc4c(c(Nc5cccc(F)c5)n3)[S+]([O-])CC4)CC2)c2ccccc21 (stereo not shown) [Example 74]
8 | 97% | [O-][S+]1CCc2nc(N3CCC(c4noc5ccccc45)CC3)nc(Nc3cccc(F)c3)c21 (stereo not shown) [Example 75, [2-(4-Benzo[d]Isoxazol-3-Yl-Piperidin-1-Yl)-5-Oxo-6,7-6,7-Dihydro-5H-5λ^4-Thieno[3,2-d]Pyrimidin-4-Yl]-(3-Fluorophenyl)-Amine]
9 | 97% | [O-][S+]1CCc2nc(N3CCC(c4cccc(O)c4)CC3)nc(Nc3cccc(F)c3)c21 (stereo not shown) [Example 76]
10 | 96% | [O-][S+]1CCc2nc(N3CCC(O)(c4cc(F)cc(F)c4)CC3)nc(Nc3cccc(F)c3)c21 (stereo not shown) [Example 77]
11 | 96% | [O-][S+]1CCc2nc(N3CCC(c4ccncc4)CC3)nc(Nc3cccc(F)c3)c21 (stereo not shown) [Example 78, (3-Fluorophenyl)-[5-Oxo-2-(3.4.5.6-Tetrahydro-2H-[4,4′]Bipyridinyl-1-Yl)-6,7-Dihydro-5H-5λ^4-Thieno[3,2-d]Pyrimidin-4-Yl]-Amine Trifluoroacetate]
12 | 96% | N#Cc1ccc(C2CCN(c3nc4c(c(Nc5cccc(F)c5)n3)[S+]([O-])CC4)CC2)cc1 (stereo not shown) [Example 79]
13 | 94% | O=C1Nc2ccccc2C2(CCN(c3nc4c(c(Nc5cccc(F)c5)n3)[S+]([O-])CC4)CC2)O1 (stereo not shown) [Example 80]
14 | 83% | O=C1Nc2ccccc2C2(CCN(c3nc4c(c(Nc5cccc(F)c5)n3)[S+]([O-])CC4)CC2)N1 (stereo not shown) [Example 81]
15 | 92% | CCc1[nH]c2ccc(F)cc2c1C1CCN(c2nc3c(c(Nc4cccc(F)c4)n2)[S+]([O-])CC3)CC1 (stereo not shown) [Example 82, {2-[4-(2-Ethyl-5-Fluoro-1H-Indol-3-Yl)-Piperidin-1-Yl]-5-Oxo-6,7-Dihydro-5H-5λ^4-Thieno[3,2-d]Pyrimidin-4-Yl}-(3-Fluorophenyl)-Amine]

The next lines start with the compound.

Row | SMILES | inhibition at 1 µM
16 | CN1C[C@@H](Nc2nc(N3CCC4(CC3)c3ccccc3NC(=O)N4C)nc3c2[S+]([O-])CC3)CCC1=O (stereo partly drawn) [Example 43, (S)-3′-Methyl-1-(4-(1-Methyl-6-Oxopiperidin-3-Ylamino)-5-Oxo-6,7-Dihydro-5H-5λ^4-Thieno[3,2-d]Pyrimidin-2-YL)-3′-Methyl-1′H-Spiro[Piperidin-4,4′-Quinazolin]-2′(3′H)-One] | 95%
17 | CN1C[C@@H](Nc2nc(N3CCC4(CC3)CN(S(C)(=O)=O)c3ccccc34)nc3c2[S+]([O-])CC3)CCC1=O (stereo partly shown) [Example 44] | 95%
18 | CN1C[C@@H](Nc2nc(N3CCC(c4noc5ccccc45)CC3)nc3c2[S+]([O-])CC3)CCC1=O (stereo partly shown) [Example 45] | 97%
19 | CN1C[C@@H](Nc2nc(N3CCC(c4cccc(O)c4)CC3)nc3c2[S+]([O-])CC3)CCC1=O (stereo partly shown) [Example 46] | 97%
20 | CN1C[C@@H](Nc2nc(N3CCC(O)(c4cc(F)cc(F)c4)CC3)nc3c2[S+]([O-])CC3)CCC1=O (stereo partly shown) [Example 47] | 97%
21 | CN1C[C@@H](Nc2nc(N3CCC(c4ccc(C#N)cc4)CC3)nc3c2[S+]([O-])CC3)CCC1=O (stereo partly shown) [Example 49] | 96%
22 | CN1C[C@@H](Nc2nc(N3CCC4(CC3)OC(=O)Nc3ccccc34)nc3c2[S+]([O-])CC3)CCC1=O (stereo partly shown) [Example 50] | 95%
23 | CN1C[C@@H](Nc2nc(N3CCC4(CC3)NC(=O)Nc3ccccc34)nc3c2[S+]([O-])CC3)CCC1=O (stereo partly shown) [Example 51] | 83%
24 | CCc1[nH]c2ccc(F)cc2c1C1CCN(c2nc3c(c(N[C@H]4CCC(=O)N(C)C4)n2)[S+]([O-])CC3)CC1 (stereo partly shown) [Example 52] | 96%
25 | Cc1noc(C2CCN(c3nc4c(c(N[C@H]5CCC(=O)N(C)C5)n3)[S+]([O-])CC4)CC2)n1 (stereo partly shown) [Example 53] | 96%
26 | CN1C[C@@H](Nc2nc(N3CCC(c4cccc(Cl)c4)CC3)nc3c2[S+]([O-])CC3)CCC1=O (stereo partly shown) [Example 54] | 97%
27 | CN1C[C@@H](Nc2nc(N3CCC(C#N)(c4ccccc4)CC3)nc3c2[S+]([O-])CC3)CCC1=O (stereo partly drawn) [Example 55, 1-[4-((S)-1-Methyl-6-Oxopiperidin-3-Ylamino)-5-Oxo-6,7-Dihydro-5H-5λ^4-Thieno[3,2-d]Pyrimidine-2-Yl]-4-Phenylpiperidine-4-Carbonitrile] | 96%
28 | [O-][S+]1CCc2nc(N3CCC(c4c[nH]c5ccccc45)CC3)nc(NC3CCOCC3)c21 (stereo not shown) [Example 56] | 96%
29 | [O-][S+]1CCc2nc(N3CCC(c4c[nH]cn4)CC3)nc(NC3CCOCC3)c21 (stereo not shown) [Example 57] | 86%
30 | CN1C(=O)Nc2ccccc2C12CCN(c1nc3c(c(NC4CCOCC4)n1)[S+]([O-])CC3)CC2 (stereo not shown) [Example 58, 3′-Methyl-1-(4-(Tetrahydro-2H-Pyran-4-Ylamino)-5-Oxo-6,7-Dihydro-5H-5λ^4-Thieno[3,2-d]Pyrimidin-2-Yl)-1′H-Spiro[Piperidin-4,4′-Quinazolin]-2′(3′H)-One] | 88%
31 | CS(=O)(=O)N1CC2(CCN(c3nc4c(c(NC5CCOCC5)n3)[S+]([O-])CC4)CC2)c2ccccc21 (stereo not shown) [Example 59] | 90%
32 | [O-][S+]1CCc2nc(N3CCC(c4noc5ccccc45)CC3)nc(NC3CCOCC3)c21 (stereo not shown) [Example 60] | 97%
33 | [O-][S+]1CCc2nc(N3CCC(c4cccc(O)c4)CC3)nc(NC3CCOCC3)c21 (stereo not shown) [Example 61] | 95%
34 | [O-][S+]1CCc2nc(N3CCC(O)(c4cc(F)cc(F)c4)CC3)nc(NC3CCOCC3)c21 (stereo not shown) [Example 62] | 96%
35 | N#Cc1ccc(C2CCN(c3nc4c(c(NC5CCOCC5)n3)[S+]([O-])CC4)CC2)cc1 (stereo not shown) [Example 64] | 96%
36 | O=C1Nc2ccccc2C2(CCN(c3nc4c(c(NC5CCOCC5)n3)[S+]([O-])CC4)CC2)O1 (stereo not shown) [Example 65] | 94%
37 | O=C1Nc2ccccc2C2(CCN(c3nc4c(c(NC5CCOCC5)n3)[S+]([O-])CC4)CC2)N1 (stereo not shown) [Example 66] | 62%
38 | CCc1[nH]c2ccc(F)cc2c1C1CCN(c2nc3c(c(NC4CCOCC4)n2)[S+]([O-])CC3)CC1 (stereo not shown) [Example 67] | 93%
39 | Cc1noc(C2CCN(c3nc4c(c(NC5CCOCC5)n3)[S+]([O-])CC4)CC2)n1 (stereo not shown) [Example 68] | 93%
40 | N#CC1(c2ccccc2)CCN(c2nc3c(c(NC4CCOCC4)n2)[S+]([O-])CC3)CC1 (stereo not shown) [Example 70] | 95%
